Test systems include 786-0; EKVX; HCT-116; HOP-92; HT-29; IGROV-1; LOX IMVI; M14; MDA-MB-231; MOLT-4; NCI-H23; NCI-H522; OVCAR-8; SF-295; TK-10; UACC-62; CCRF-CEM; HCC 2998; KM12; A498.
Common to all, as to assay: NCI anticancer screen, dose series, 48 h

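1) Cells in 96-well plates. 2) Compound, 48 h, 5 concentrations. 3) Linear interpolation between surrounding doses. 4) Unreached endpoint = highest concentration. The concentration for 50% growth inhibition is given as GI50.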 Calls of active or inactive are those of the source. Rule as the data show it: active = GI50 up to about 1.1 µM and inactive = higher.

Take `O=[N+]([O-])c1ccc2[nH]c(-c3ccc(Cl)cc3)nc2c1`: the GI50 with 786-0 was 33 µM (inactive); in the assay on EKVX, 14.4 µM (inactive); in the assay on HCT-116 it was 17.3 µM (inactive); with HOP-92, 29 µM (inactive); in the assay with HT-29 it was 18.5 µM (inactive); in the assay with IGROV-1 it was 31 µM (inactive). For the same compound, the GI50 in the assay on LOX IMVI was 18.1 µM (inactive); with M14, 19.1 µM (inactive); with MDA-MB-231, 15.5 µM (inactive); in the assay with MOLT-4 it was 25.4 µM (inactive); in the assay on NCI-H23, 25.3 µM (inactive); with NCI-H522, 12.6 µM (inactive). Besides, the GI50 was 30.1 µM (inactive) in the assay on OVCAR-8, 20.3 µM (inactive) with SF-295, 32.6 µM (inactive) with TK-10 and 21.2 µM (inactive) in the assay with UACC-62.
Consider `COC(=O)c1ccccc1C1CN=NC12Cc1c(ccc3c1CCC3)C2=O` (stereo not given), for which the GI50 with 786-0 was > 100 µM (inactive); in the assay on CCRF-CEM it was 49.5 µM (inactive); in the assay with EKVX it was 45.9 µM (inactive); in the assay on HCC 2998, > 100 µM (inactive); with HCT-116 it was 43.2 µM (inactive); in the assay on HOP-92, 27.4 µM (inactive). Further, the GI50 in the assay with HT-29 was 43.5 µM (inactive); with IGROV-1, 88.7 µM (inactive); in the assay with KM12, 38.4 µM (inactive); in the assay on LOX IMVI it was 23.8 µM (inactive); in the assay on M14, 46.5 µM (inactive); in the assay on MDA-MB-231 it was 67.8 µM (inactive). Besides, the GI50 in the assay with MOLT-4 is 30.5 µM (inactive); in the assay on NCI-H23, 66.2 µM (inactive); with NCI-H522, 0.635 µM (active); in the assay on OVCAR-8, 92.5 µM (inactive); in the assay on SF-295, 47.3 µM (inactive); in the assay on TK-10 it was > 100 µM (inactive). Also, in the assay on UACC-62, the GI50 is 55.1 µM (inactive).
For `CC1CCCN(CC(O)CN2CCCc3ccccc32)C1` (stereo not given), the GI50 in the assay on 786-0 is > 100 µM (inactive); in the assay with A498, > 100 µM (inactive); in the assay on CCRF-CEM, > 100 µM (inactive); in the assay on EKVX, > 100 µM (inactive); in the assay on HCT-116 it was > 100 µM (inactive); in the assay on HT-29, 41.6 µM (inactive). In addition, the GI50 in the assay with IGROV-1, in the assay on KM12, in the assay with LOX IMVI, in the assay with M14, with MDA-MB-231 and in the assay on MOLT-4 was > 100 µM (inactive) each time. Moreover, the GI50 in the assay with NCI-H23 was > 100 µM (inactive); with NCI-H522 it was 64.4 µM (inactive); in the assay on OVCAR-8, > 100 µM (inactive); with SF-295, > 100 µM (inactive); in the assay with TK-10 it was > 100 µM (inactive); with UACC-62, > 100 µM (inactive).
Regarding `CC(=O)OCC1OC(n2ncc(=O)[nH]c2=O)C(OC(C)=O)C1OC(C)=O` (stereo not given), the GI50 in the assay with 786-0 was 4.04 µM (inactive); in the assay with CCRF-CEM, 0.718 µM (active); in the assay on HCC 2998, 26.1 µM (inactive); with HCT-116, 1.07 µM (active); with HOP-92, > 100 µM (inactive); in the assay with HT-29, 6.67 µM (inactive). The GI50 with IGROV-1 was 17.8 µM (inactive); with KM12 it was 11.3 µM (inactive); in the assay with LOX IMVI, 6.3 µM (inactive); in the assay with M14, 73.5 µM (inactive); in the assay on MDA-MB-231, > 10 µM (inactive); in the assay on MOLT-4 it was 1.32 µM (inactive). Also, the GI50 in the assay with NCI-H23 was 68.5 µM (inactive); in the assay with NCI-H522, 19.1 µM (inactive); with OVCAR-8, 14.7 µM (inactive); in the assay on SF-295, 5.27 µM (inactive); with TK-10, > 100 µM (inactive); with UACC-62, 23.2 µM (inactive).
On to `COC(=O)C1=C(C(=O)OC)C(OO)(c2ccccc2)OC1=O` (stereo not given), for which the GI50 was 36.5 µM (inactive) with 786-0; 55.6 µM (inactive) in the assay with CCRF-CEM; > 100 µM (inactive) in the assay with EKVX; > 100 µM (inactive) in the assay on HCC 2998; 61.7 µM (inactive) in the assay on HCT-116; > 100 µM (inactive) in the assay on HOP-92. In addition, the GI50 in the assay on HT-29 is 35.9 µM (inactive); in the assay with IGROV-1 it was 35 µM (inactive); in the assay on KM12 it was > 100 µM (inactive); in the assay on LOX IMVI it was 31.3 µM (inactive); in the assay on M14, > 100 µM (inactive); in the assay with MDA-MB-231 it was 58.2 µM (inactive). Also, the GI50 in the assay on MOLT-4 is > 100 µM (inactive); in the assay on NCI-H23 it was > 100 µM (inactive); with NCI-H522, 60.7 µM (inactive); with OVCAR-8 it was > 100 µM (inactive); in the assay on SF-295, > 100 µM (inactive); in the assay with TK-10, > 100 µM (inactive). In the assay with UACC-62, the GI50 was 34.2 µM (inactive).
In the case of `O=C1NC(N2CCCC(CO)C2)=N/C1=C\c1cccs1` (stereo not given), the GI50 in the assay on 786-0, in the assay on CCRF-CEM, in the assay on EKVX, in the assay on HCC 2998, in the assay with HCT-116 and in the assay with HOP-92 was > 100 µM (inactive) in each case. In addition, the GI50 in the assay with HT-29, with IGROV-1, with KM12, in the assay on LOX IMVI, with M14 and in the assay on MDA-MB-231 was > 100 µM (inactive) in each case. Also, the GI50 with MOLT-4, with NCI-H23, in the assay with NCI-H522, in the assay on OVCAR-8, with SF-295 and with TK-10 was > 100 µM (inactive) each time. Moreover, in the assay on UACC-62, the GI50 was > 100 µM (inactive).
On to `Cn1c(=O)n2n(c1=O)C([S+]([O-])c1ccccc1)C2` (stereo not given), for which the GI50 is > 100 µM (inactive) in the assay on 786-0; 20.2 µM (inactive) with CCRF-CEM; > 100 µM (inactive) with EKVX; > 100 µM (inactive) in the assay on HCC 2998; > 100 µM (inactive) in the assay with HCT-116; > 100 µM (inactive) with HOP-92. Moreover, the GI50 was > 100 µM (inactive) in the assay with HT-29; 32.1 µM (inactive) with IGROV-1; 42.8 µM (inactive) in the assay with KM12; 38.9 µM (inactive) with LOX IMVI; > 100 µM (inactive) in the assay with M14; > 100 µM (inactive) in the assay on MDA-MB-231. Besides, the GI50 is 18.5 µM (inactive) with MOLT-4; > 100 µM (inactive) with NCI-H23; 30.8 µM (inactive) in the assay with NCI-H522; > 100 µM (inactive) in the assay on OVCAR-8; > 100 µM (inactive) in the assay with SF-295; > 100 µM (inactive) in the assay with TK-10. Further, the GI50 with UACC-62 was > 100 µM (inactive).
Consider `CC(C)(C)OC(=O)NCCCCC(NC(=O)OCc1ccccc1)C(N)=O` (stereo not given), for which the GI50 with 786-0 was > 100 µM (inactive); in the assay on CCRF-CEM, > 100 µM (inactive); in the assay on EKVX it was 82.2 µM (inactive); in the assay with HCC 2998, > 100 µM (inactive); with HCT-116, > 100 µM (inactive); in the assay with HT-29 it was > 100 µM (inactive). Moreover, the GI50 in the assay with IGROV-1, in the assay with KM12, in the assay on LOX IMVI, with M14, in the assay on MDA-MB-231 and in the assay on MOLT-4 was > 100 µM (inactive) each time. For the same compound, the GI50 with NCI-H23, in the assay on NCI-H522, in the assay on OVCAR-8, in the assay with SF-295, in the assay with TK-10 and in the assay on UACC-62 was > 100 µM (inactive) each time.
Take `COc1ccc(C2(O)C(S(=O)(=O)c3ccc(C)cc3)=Cc3ccc(OC)cc32)cc1` (stereo not given): the GI50 with 786-0 is 41 µM (inactive); with A498, 44.5 µM (inactive); in the assay on CCRF-CEM, > 100 µM (inactive); in the assay with EKVX, 78.2 µM (inactive); with HCC 2998, > 100 µM (inactive); in the assay on HCT-116, > 100 µM (inactive). For the same compound, the GI50 in the assay with HT-29, with IGROV-1, with KM12, in the assay on LOX IMVI, in the assay on MDA-MB-231 and with MOLT-4 was > 100 µM (inactive) throughout. Moreover, the GI50 is > 100 µM (inactive) in the assay with NCI-H23; 39.9 µM (inactive) in the assay on NCI-H522; 44.3 µM (inactive) with OVCAR-8; 28.2 µM (inactive) in the assay on SF-295; 46.5 µM (inactive) in the assay on TK-10.
For the compound `OCC1C(OCc2ccccc2)C(OCc2ccccc2)C(OCc2ccccc2)CN1Cc1ccccc1` (stereo not given), the GI50 is 26.3 µM (inactive) in the assay on 786-0; 28.8 µM (inactive) in the assay on CCRF-CEM; 84.9 µM (inactive) with EKVX; 28.2 µM (inactive) in the assay with HCC 2998; 17.3 µM (inactive) with HCT-116; 9.64 µM (inactive) in the assay with HOP-92. The GI50 in the assay with HT-29 was 9.62 µM (inactive); in the assay with IGROV-1, 35.5 µM (inactive); with KM12 it was 16.8 µM (inactive); in the assay on LOX IMVI it was 31.3 µM (inactive); in the assay on M14 it was 37.2 µM (inactive); with MDA-MB-231 it was 21.3 µM (inactive). In addition, the GI50 in the assay on MOLT-4 was 7.62 µM (inactive); in the assay with NCI-H23, 15.4 µM (inactive); in the assay on NCI-H522, 27.4 µM (inactive); with OVCAR-8 it was 29.9 µM (inactive); with SF-295 it was 30.3 µM (inactive); in the assay on TK-10, 42.8 µM (inactive). Also, in the assay on UACC-62, the GI50 is > 100 µM (inactive).
In the case of `Sc1nnc(C23CC4CC(CC(C4)C2)C3)n1-c1ccc(Cl)cc1`, the GI50 in the assay on 786-0 was 14.6 µM (inactive); with A498 it was 19.1 µM (inactive); with CCRF-CEM it was 4.36 µM (inactive); in the assay on HCC 2998, 13.7 µM (inactive); in the assay with HCT-116, 7.59 µM (inactive); in the assay with HT-29, 14.6 µM (inactive). For the same compound, the GI50 was 8.75 µM (inactive) with IGROV-1; 14.6 µM (inactive) with KM12; 4.54 µM (inactive) with LOX IMVI; 15.1 µM (inactive) in the assay on M14; 21.4 µM (inactive) with MDA-MB-231; 8.41 µM (inactive) in the assay with MOLT-4. For the same compound, the GI50 is 27.5 µM (inactive) in the assay on NCI-H23; 20.2 µM (inactive) with NCI-H522; 15.8 µM (inactive) in the assay with OVCAR-8; 11.1 µM (inactive) with SF-295; 22.3 µM (inactive) with TK-10; 8.26 µM (inactive) in the assay with UACC-62.

Values taken from ChEMBL document CHEMBL1201862, “PubChem BioAssay data set” (2004).
